1 cell line from the supplement of paper PMC10307832 can be followed below.

Common to all, as to assay: relative viability (nuclei count vs DMSO), 5 days (fraction); higher = more cells survive
Compound in assay [1]: C1CNCCC1C2=CC(=NN2)C3=CC=NC=C3 + CS(=O)(=O)N1CCN(Cc2cc3nc(-c4cccc5[nH]ncc45)nc(N4CCOCC4)c3s2)CC1 [Pictilisib] (partner 1 µM)
In short, it runs like this:
(§1)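 Lung cancer cell lines in 1536-well plates got either a single drug or a fixed anchor-drug dose together with five library-drug doses (not always all listed) in √10 steps, by pin tool, on the day after seeding. Nuclei were counted after 5 days, and relative viability is the treated-to-vehicle ratio of nuclei counts. Values are medians of duplicate plates.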

Compound in assay [2]: C1CNCCC1C2=CC(=NN2)C3=CC=NC=C3 + Nc1ncn([C@H]2C[C@H](O)[C@@H](CO)O2)c(=O)n1 [Decitabine] (partner 2 µM)
A digest of the protocol: as §1

Compound in the assay “Tanzisertib + Luminespib”: O[C@H]1CC[C@H](Nc2ncc3nc(Nc4c(F)cc(F)cc4F)n([C@H]4CCOC4)c3n2)CC1 [Tanzisertib] + CCNC(=O)c1noc(-c2cc(C(C)C)c(O)cc2O)c1-c1ccc(CN2CCOCC2)cc1 [Luminespib] (partner 0.01 µM)
In short, it runs like this:
as §1

Compound in the assay “Tanzisertib + Decitabine”: O[C@H]1CC[C@H](Nc2ncc3nc(Nc4c(F)cc(F)cc4F)n([C@H]4CCOC4)c3n2)CC1 [Tanzisertib] + Nc1ncn([C@H]2C[C@H](O)[C@@H](CO)O2)c(=O)n1 [Decitabine] (partner 2 µM)
A digest of the protocol:
as §1

On to UMC-11, for which the relative viability in assay [1] (first compound 0.08 µM) turned out to be 0.698; in assay [1] (first compound 0.8 µM), 1.16; in assay [1] (first compound 2.53 µM), 0.97; in assay [1] (first compound 8 µM) it was 0.822; in assay [2] (first compound 0.08 µM) it was 0.4; in assay [2] (first compound 0.8 µM) it was 0.629. The relative viability amounted to 0.697 in assay [2] (first compound 2.53 µM); 0.808 in assay [2] (first compound 8 µM); 1.1 with Tanzisertib + Luminespib (first compound 0.08 µM); 1 in the assay with Tanzisertib + Luminespib (first compound 0.253 µM); 0.946 with Tanzisertib + Luminespib (first compound 0.8 µM); 1.08 with Tanzisertib + Luminespib (first compound 2.53 µM). The relative viability was 1.03 with Tanzisertib + Luminespib (first compound 8 µM); 0.662 with Tanzisertib + Decitabine (first compound 0.08 µM); 0.688 in the assay with Tanzisertib + Decitabine (first compound 0.253 µM); 0.654 with Tanzisertib + Decitabine (first compound 0.8 µM); 0.852 with Tanzisertib + Decitabine (first compound 2.53 µM); 0.85 in the assay with Tanzisertib + Decitabine (first compound 8 µM).
